Measured values published in PMC9873307, “Methylone, a rapid acting entactogen with robust anxiolytic and antidepressant-like activity” (Frontiers in Psychiatry, 2023).
Read-outs that look alike come from different tables or passages of the source.

Assays:
male Sprague Dawley rats = test: Forced swim test (FST); format: in vivo, rat; settings: for percent time spent immobile: 30 min before 5-min test
Protocol: Male Sprague Dawley rats (Charles River Laboratories) weighing 180–200 g on arrival, were used for all behavioral studies, which took place at Melior Discovery (Exton, PA, USA). Rats acclimated to their home cages for at least 1 week before testing, were maintained in a controlled environment on a 12 h light/dark cycle, with no more than 2 rats per cage. Animals received ad libitum access to standard rodent chow and water and were assigned randomly to treatment groups. All animal use and procedures were in accordance with established protocols approved by the Melior IACUC committee, Melior Standard Operation Procedures (SOP), and Transcend Therapeutics. Distinct cohorts of animals were used for each experiment/Figure presented in this manuscript.
Methylone HCl (0.5–30 mg/kg; Cayman Chemical) or Fluoxetine HCl (10 mg/kg; Sigma-Aldrich) were formulated in sterile 0.9% saline vehicle before IP administration. Control animals received saline vehicle. Methylone or saline was administered 30 min prior to FST or OFT testing sessions. Fluoxetine or saline were administered 23.5, 5, and 1 h prior to testing, consistent with previous studies ([19]).
All studies were performed and scored by an experimenter blind to treatment group according to standard protocols at Melior Discovery (Exton, PA, USA) and based on published “modified FST” procedures ([20]). Briefly, rats were placed in a circular plexiglass container (29.2 cm diameter, 49.5 cm height) filled with water to a depth of 30 cm so rats could not support themselves by touching the bottom of the tank. Water was maintained at 22–25°C and was changed for every animal. Day 1 (Training) consisted of a 15 min acclimation trial, and Day 2 (Testing, 24 h later) consisted of the 5 min test. A time sampling procedure was employed where animals were observed every 5 s for the duration of the test session (60 counts or 5 min) and scored for immobility (defined as the failure to struggle), swimming (defined as a circular movement around the tank), or climbing (defined as an upward escape behavior). Data are expressed as the percent time spent immobile, swimming, or climbing for the 5-min testing session (e.g., the number of immobility counts divided by 60). Therefore, to extrapolate these values to time spent immobile in minutes, one can multiply the percent time immobile by 5 min.

[1] = Pharmacokinetics in plasma and brain after IP dosing; format: in vivo; settings: rat; for Kp: brain and plasma; for Kp / MRT last / half-life: ip
Protocol: Pharmacokinetics studies were carried out at WuXi Apptec, Inc. (Cranbury, NJ, USA) using standard protocols. All animal use and procedures were approved by the WuXi Apptec, Inc., IACUC. Briefly, terminal blood and brain samples were collected from 6 to 8 week old male Sprague Dawley rats (Hilltop Lab Animals, Inc., Scottsdale, PA, USA) at 0.25, 0.5, 1, 2, 4, and 8 h (N = 3 per group per time point) for the determination of plasma concentrations of methylone following intraperitoneal (IP) dosing of 5, 10, or 15 mg/kg methylone. Since these were terminal collections, three independent rats per group were used for each time point in a single PK curve from which PK parameters (Cmax, AUC, etc.) were generated. Samples were collected into K2EDTA tubes on ice and centrifuged at 3000 × g at 4°C for 5 min within 30 min of collection. Plasma samples were stored at −80°C until analysis by liquid chromatography tandem mass spectrometry (LC-MS/MS). The bioanalytical assay provided a lower limit of quantification (LLOQ) of 1 ng/mL and an upper limit of quantification (ULOQ) of 3000 ng/mL for methylone. The plasma concentration-time data were analyzed using Phoenix WinNonlin (version 8.3) to characterize the PK properties of the analyte. The non-compartmental analysis model and the linear/log trapezoidal method were applied to the calculation of the PK parameters.

PTSD patients = test system: PTSD patients; parameters: method as in earlier work; settings: retrospective clinical case series; cited from earlier work
[2] = test system: serotonin receptor 1A (5-HTR1A); parameters: method as in PMID 23583454; settings: not all reports support activity ([43]); cited from earlier work
rodents = test system: rodents; parameters: method as in PMID 23839026, PMID 28882561, PMID 22509960, PMID 22922498; settings: cited from earlier work
[3] = male, Sprague Dawley, plasma, 5 mg/kg IP
[4] = male, Sprague Dawley, plasma, 10 mg/kg IP
[5] = male, Sprague Dawley, plasma, 15 mg/kg IP

With `CNC(C)C(=O)c1ccc2c(c1)OCO2` (centres unmarked) [methylone, 3,4-methylenedioxy-N-methylcathinone] the “reduced immobility relative to Vehicle controls” value (male Sprague Dawley rats; after a single dose of methylone) was 78–98%, the “duration of antidepressant-like effect” value (male Sprague Dawley rats; after a single dose of methylone 15 mg/kg IP) was “at least 72 h” and the “percent time spent immobile” value (male Sprague Dawley rats; methylone 5 mg/kg IP, Vehicle 63.9 ± 2.7%) was 31.9 ± 4.7%. The “climbing vs vehicle on retest” value (male Sprague Dawley rats; methylone 15 mg/kg IP once, 30 min, 24, 72 h, Figure 3D) was “small but significant effect of methylone on climbing was observed at 30 min only”, the “swimming vs vehicle on retest” value (male Sprague Dawley rats; methylone 15 mg/kg IP once, 30 min, 24, 72 h, Figure 3F) was “significantly increasing swimming at all three time points tested” and the “immobility vs vehicle on retest” value (male Sprague Dawley rats; methylone 15 mg/kg IP once, tested 30 min, 24 and 72 h, Figure 3B) was “reducing immobility significantly at all-time points”. The “climbing behavior vs controls” value (male Sprague Dawley rats; methylone 0.5–30 mg/kg IP dose response, 30 min before, Figure 1D) was “increased only by low to mid doses of methylone (5–10 mg/kg)”, the “percent time spent immobile” value (male Sprague Dawley rats; methylone 10–15 mg/kg IP, Vehicle 63.9 ± 2.7%) was 4.2 ± 1.3% and the “immobility at highest doses” value (male Sprague Dawley rats; methylone 20–30 mg/kg, not statistically significant) was “trend toward less reduction in immobility”. The “climbing compared to vehicle” value (male Sprague Dawley rats; methylone alone 5 mg/kg IP 30 min before, Figure 6C) was “significantly increased climbing”, the “% time immobile” value (male Sprague Dawley rats; methylone alone, 15 mg/kg, Figure 1B, Vehicle 63.9 ± 2.7%) was 4.2 ± 1.8% and the “dose of first significant effect on immobility” value (male Sprague Dawley rats; methylone dose response) was 5 mg/kg. For the same compound, the “dose of maximal effect on immobility” value (male Sprague Dawley rats; methylone dose response) was 10 mg/kg, the “swimming behavior vs controls” value (male Sprague Dawley rats; methylone mid to high doses, 30 min before, Figure 1F) was “significantly increased” and the “change in immobility vs vehicle control” value (male Sprague Dawley rats; methylone single low dose 5 mg/kg IP, 30 min before) was ~50%. The onset of effect (male Sprague Dawley rats; single dose of methylone) was ≤ 30 min, the “reduction of immobility vs. controls” value (male Sprague Dawley rats; single dose of methylone (5–30 mg/kg) 30 min prior to testing) was ~95% and the plasma concentration ([1]; after 5 mg/kg dose) was “approximately 8 μM”. For the same compound, the plasma concentration ([1]; after 10 mg/kg dose) was ~18 µM, the “AUC0–last” value ([1]; brain, 5 mg/kg IP) was 1661 ng·h/g and the Tlast ([1]; brain, 5 mg/kg IP) was 4.00 h. For the same compound, the “AUC0–last” value ([1]; brain, 10 mg/kg IP) was 5576 ng·h/g, the Tlast ([1]; brain, 10 mg/kg IP) was 4.00 h and the “AUC0–last” value ([1]; brain, 15 mg/kg IP) was 13201 ng·h/g. It also gave a Tlast ([1]; brain, 15 mg/kg IP) of 8.00 h, a Kp ([1]; male, Sprague Dawley, 5 mg/kg, 5 mg/kg IP, read-out: AUC ratio (brain: plasma)) of 1.83 and a Kp ([1]; male, Sprague Dawley, 10 mg/kg, 10 mg/kg IP, read-out: AUC ratio (brain: plasma)) of 1.72. The Kp ([1]; male, Sprague Dawley, 15 mg/kg, 15 mg/kg IP, read-out: AUC ratio (brain: plasma)) was 1.8, the Kp ([1]; male, Sprague Dawley, 15 mg/kg, across 5, 10, 15 mg/kg IP, read-out: brain to plasma AUC ratio) was ~1.8 and the MRT last ([1]; male, Sprague Dawley, brain, 5 mg/kg, brain, 5 mg/kg IP, read-out: MRT0–last) was 41.8 min. The half-life ([1]; male, Sprague Dawley, brain, 5 mg/kg, brain, 5 mg/kg IP, read-out: T1/2 (converted)) was 41.5 min, the MRT last ([1]; male, Sprague Dawley, brain, 10 mg/kg, brain, 10 mg/kg IP, read-out: MRT0–last) was 61.8 min and the half-life ([1]; male, Sprague Dawley, brain, 10 mg/kg, brain, 10 mg/kg IP, read-out: T1/2 (converted)) was 36.4 min. The MRT last ([1]; male, Sprague Dawley, brain, 15 mg/kg, brain, 15 mg/kg IP, read-out: MRT0–last) was 60.6 min, the half-life ([1]; male, Sprague Dawley, brain, 15 mg/kg, brain, 15 mg/kg IP, read-out: T1/2 (converted)) was 53 min and the MRT last ([1]; male, Sprague Dawley, plasma, 5 mg/kg, plasma, 5 mg/kg IP, read-out: MRT0–last) was 40 min. The half-life ([1]; male, Sprague Dawley, plasma, 5 mg/kg, plasma, 5 mg/kg IP, read-out: T1/2 (converted)) was 35.9 min, the MRT last ([1]; male, Sprague Dawley, plasma, 10 mg/kg, plasma, 10 mg/kg IP, read-out: MRT0–last) was 64.2 min and the half-life ([1]; male, Sprague Dawley, plasma, 10 mg/kg, plasma, 10 mg/kg IP, read-out: T1/2 (converted)) was 40.4 min. For the same compound, the MRT last ([1]; male, Sprague Dawley, plasma, 15 mg/kg, across 5, 10, 15 mg/kg IP, read-out: mean residence time (MRT0–last)) was 42 to 67.8 min, the half-life ([1]; male, Sprague Dawley, plasma, 15 mg/kg, across 5, 10, 15 mg/kg IP, read-out: terminal elimination half-life (T1/2)) was 36 to 48 min and the MRT last ([1]; male, Sprague Dawley, plasma, 15 mg/kg, plasma, 15 mg/kg IP, read-out: MRT0–last) was 67.8 min. The half-life ([1]; male, Sprague Dawley, plasma, 15 mg/kg, plasma, 15 mg/kg IP, read-out: T1/2 (converted)) was 48.7 min, the Cmax ([1]; male, Sprague Dawley, brain, 5 mg/kg IP) was 3510 ng/g and the Cmax ([1]; male, Sprague Dawley, brain, 10 mg/kg IP) was 8020 ng/g. The Cmax ([1]; male, Sprague Dawley, brain, 15 mg/kg IP) was 20000 ng/g, the AUC(0-t) [1, 3] was 908 ng·h/mL and the Cmax [1, 3] was 1980 ng/mL. For the same compound, the AUC(0-t) [1, 4] was 3240 ng·h/mL, the Cmax [1, 4] was 4510 ng/mL and the AUC(0-t) [1, 5] was 7320 ng·h/mL. For the same compound, the Cmax [1, 5] was 8470 ng/mL, the Tmax ([1]; male, Sprague Dawley, plasma, 5, 10 or 15 mg/kg IP) was 15 min and the Tlast ([1]; plasma, 5 mg/kg IP) was 4.00 h. The Tlast ([1]; plasma, 10 mg/kg IP) was 8.00 h, the Tlast ([1]; plasma, 15 mg/kg IP) was 8.00 h and the “effect on symptoms of PTSD” value (PTSD patients) was “alleviates symptoms of PTSD”. The “activity at 5-HTR1A” value [2] was “partial agonist” and the locomotor activity (rodents) was “increase locomotor activity”.
